Data from ChEMBL document CHEMBL5614421, “Structure-activity relationship study of Pseudellone C as anti-glioma agents by targeting TNF/TNFR signaling pathway” (Eur J Med Chem, 2024).

What was measured:
[1] = Drug concentration in C57BL/6J mouse brain at 9 mg/kg,iv administration measured after 15 mins by LC-MS analysis; type: ADME, organism-based; conditions: read-out: Ct
U-87 MG [2] = assay: Induction of apoptosis in human U-87 MG cells assessed as necrotic cells at 20 uM incubated for 24 hrs in presence of R7050 by Annexin V-APC/7-AAD staining based flow cytometric analysis (reference value: 3.85 %); type: functional, U-87MG ATCC
U-87 MG [3] = assay: Induction of apoptosis in human U-87 MG cells assessed as viable cells at 10 uM incubated for 24 hrs by Annexin V-APC/7-AAD staining based flow cytometric analysis (reference value: 94 %); type: functional, U-87MG ATCC; conditions: read-out: Activity
U-87 MG [4] = assay: Induction of apoptosis in human U-87 MG cells at 20 uM incubated for 24 hrs by Annexin V-APC/7-AAD staining based flow cytometric analysis (reference value: 5.67 +/- 1.49 %); type: functional, U-87MG ATCC
U-87 MG [5] = assay: Induction of apoptosis in human U-87 MG cells assessed as late apoptotic cells at 5 uM incubated for 24 hrs by Annexin V-APC/7-AAD staining based flow cytometric analysis (reference value: 4.22 %); type: functional, U-87MG ATCC
U-87 MG [6] = assay: Induction of apoptosis in human U-87 MG cells assessed as viable cells at 20 uM incubated for 24 hrs in presence of R7050 by Annexin V-APC/7-AAD staining based flow cytometric analysis (reference value: 85 %); type: functional, U-87MG ATCC; conditions: read-out: Activity
U-87 MG [7] = assay: Induction of apoptosis in human U-87 MG cells assessed as necrotic cells at 20 uM incubated for 24 hrs by Annexin V-APC/7-AAD staining based flow cytometric analysis (reference value: 1 %); type: functional, U-87MG ATCC
LN-229 [8] = assay: Induction of apoptosis in human LN-229 cells assessed as early apoptotic cells at 20 uM incubated for 24 hrs by Annexin V-APC/7-AAD staining based flow cytometric analysis (reference value: 2.46 %); type: functional
U-87 MG [9] = assay: Induction of apoptosis in human U-87 MG cells assessed as necrotic cells at 10 uM incubated for 24 hrs by Annexin V-APC/7-AAD staining based flow cytometric analysis (reference value: 0.21 %); type: functional, U-87MG ATCC
LN-229 [10] = assay: Induction of apoptosis in human LN-229 cells assessed as late apoptotic cells at 20 uM incubated for 24 hrs by Annexin V-APC/7-AAD staining based flow cytometric analysis (reference value: 5.1 %); type: functional
LN-229 [11] = assay: Induction of apoptosis in human LN-229 cells assessed as early apoptotic cells at 20 uM incubated for 48 hrs by Annexin V-APC/7-AAD staining based flow cytometric analysis (reference value: 2.46 %); type: functional
U-87 MG [12] = assay: Induction of apoptosis in human U-87 MG cells assessed as necrotic cells at 5 uM incubated for 24 hrs by Annexin V-APC/7-AAD staining based flow cytometric analysis (reference value: 0.21 %); type: functional, U-87MG ATCC
LN-229 [13] = assay: Induction of apoptosis in human LN-229 cells assessed as viable cells at 5 uM incubated for 24 hrs by Annexin V-APC/7-AAD staining based flow cytometric analysis (reference value: 95.4 %); type: functional; conditions: read-out: Activity
LN-229 [14] = assay: Induction of apoptosis in human LN-229 cells at 10 uM incubated for 48 hrs by Annexin V-APC/7-AAD staining based flow cytometric analysis (reference value: 7.32 +/- 0.71 %); type: functional
U-87 MG [15] = assay: Induction of apoptosis in human U-87 MG cells assessed as necrotic cells at 20 uM incubated for 24 hrs by Annexin V-APC/7-AAD staining based flow cytometric analysis (reference value: 3.85 %); type: functional, U-87MG ATCC
LN-229 [16] = assay: Induction of apoptosis in human LN-229 cells assessed as early apoptotic cells at 10 uM incubated for 24 hrs by Annexin V-APC/7-AAD staining based flow cytometric analysis (reference value: 0.45 %); type: functional
U-87 MG [17] = assay: Induction of apoptosis in human U-87 MG cells assessed as upregulation of cleaved caspase-3 expression incubated for 24 hrs by Western blot analysis; type: functional, cell-based; conditions: U-87MG ATCC
U-87 MG [18] = assay: Induction of apoptosis in human U-87 MG cells assessed as late apoptotic cells at 10 uM incubated for 24 hrs by Annexin V-APC/7-AAD staining based flow cytometric analysis (reference value: 4.22 %); type: functional, U-87MG ATCC
U-87 MG [19] = assay: Induction of apoptosis in human U-87 MG cells assessed as late apoptotic cells at 20 uM incubated for 48 hrs by Annexin V-APC/7-AAD staining based flow cytometric analysis (reference value: 3.44 %); type: functional, U-87MG ATCC
U-87 MG [20] = assay: Induction of apoptosis in human U-87 MG cells assessed as viable cells at 20 uM incubated for 48 hrs by Annexin V-APC/7-AAD staining based flow cytometric analysis (reference value: 94.6 %); type: functional, U-87MG ATCC; conditions: read-out: Activity
LN-229 [21] = assay: Induction of apoptosis in human LN-229 cells assessed as late apoptotic cells at 20 uM incubated for 24 hrs by Annexin V-APC/7-AAD staining based flow cytometric analysis (reference value: 3.56 %); type: functional
LN-229 [22] = assay: Induction of apoptosis in human LN-229 cells assessed as necrotic cells at 20 uM incubated for 24 hrs by Annexin V-APC/7-AAD staining based flow cytometric analysis (reference value: 1.95 %); type: functional
LN-229 [23] = assay: Induction of apoptosis in human LN-229 cells assessed as early apoptotic cells at 5 uM incubated for 24 hrs by Annexin V-APC/7-AAD staining based flow cytometric analysis (reference value: 0.45 %); type: functional
U-87 MG [24] = assay: Induction of apoptosis in human U-87 MG cells at 20 uM incubated for 24 hrs in presence of R7050 by Annexin V-APC/7-AAD staining based flow cytometric analysis relative to control; type: functional, U-87MG ATCC
LN-229 [25] = assay: Induction of apoptosis in human LN-229 cells assessed as early apoptotic cells at 20 uM incubated for 24 hrs by Annexin V-APC/7-AAD staining based flow cytometric analysis (reference value: 0.45 %); type: functional
U-87 MG [26] = assay: Induction of apoptosis in human U-87 MG cells assessed as late apoptotic cells at 20 uM incubated for 24 hrs by Annexin V-APC/7-AAD staining based flow cytometric analysis (reference value: 3.44 %); type: functional, U-87MG ATCC
U-87 MG [27] = assay: Induction of apoptosis in human U-87 MG cells assessed as viable cells at 20 uM incubated for 24 hrs by Annexin V-APC/7-AAD staining based flow cytometric analysis (reference value: 85 %); type: functional, U-87MG ATCC; conditions: read-out: Activity
LN-229 [28] = assay: Induction of apoptosis in human LN-229 cells assessed as necrotic cells at 20 uM incubated for 24 hrs in presence of R7050 by Annexin V-APC/7-AAD staining based flow cytometric analysis (reference value: 1.95 %); type: functional
LN-229 [29] = assay: Induction of apoptosis in human LN-229 cells assessed as necrotic cells at 20 uM incubated for 12 hrs by Annexin V-APC/7-AAD staining based flow cytometric analysis (reference value: 0.7 %); type: functional
U-87 MG [30] = assay: Induction of apoptosis in human U-87 MG cells at 10 uM incubated for 48 hrs by Annexin V-APC/7-AAD staining based flow cytometric analysis (reference value: 5.43 +/- 0.54 %); type: functional, U-87MG ATCC
LN-229 [31] = assay: Induction of apoptosis in human LN-229 cells assessed as early apoptotic cells at 20 uM incubated for 24 hrs by Annexin V-APC/7-AAD staining based flow cytometric analysis (reference value: 0.91 %); type: functional

For CCCCCCCNC(=O)[C@H](Cc1c[nH]c2ccccc12)NC(=O)C(C)(c1c[nH]c2ccccc12)c1c[nH]c2ccccc12, the concentration at 0.25 h [1] was 91 ng/g, the Activity (U-87 MG [2]) was 0.86% and the viability at 10 µM (U-87 MG [3]) was 89.2%. The Activity (U-87 MG [4]) was 13.95%, the Activity (U-87 MG [5]) was 4.92% and the viability at 20 µM (U-87 MG [6]) was 87.6%. It also gave an Activity (U-87 MG [7]) of 1.37%, an Activity (LN-229 [8]) of 13% and an Activity (U-87 MG [9]) of 0.21%. The Activity (LN-229 [10]) was 4.38%, the Activity (LN-229 [11]) was 18.5% and the Activity (U-87 MG [12]) was 0.14%. For the same compound, the viability at 5 µM (LN-229 [13]) was 95%, the Activity (LN-229 [14]) was 61.42% and the Activity (U-87 MG [15]) was 8.66%. The Activity (LN-229 [16]) was 3.58%, the Activity (U-87 MG [17]) was “Dose-Dependent Effect” and the Activity (U-87 MG [18]) was 6.16%. The Activity (U-87 MG [19]) was 11.6%, the viability at 20 µM (U-87 MG [20]) was 78.7% and the Activity (LN-229 [21]) was 4.99%. It also gave an Activity (LN-229 [22]) of 1.94%, an Activity (LN-229 [23]) of 0.82% and an Activity (U-87 MG [24]) of 9.37%. For the same compound, the Activity (LN-229 [25]) was 13.8%, the Activity (U-87 MG [26]) was 4.03% and the viability at 20 µM (U-87 MG [27]) was 65.1%. For the same compound, the Activity (LN-229 [28]) was 1.25%, the Activity (LN-229 [29]) was 1.45% and the Activity (U-87 MG [30]) was 17.37%. For the same compound, the Activity (LN-229 [31]) was 24.2%.
